Patent publication US20240327444A1, “Method for Purifying Nucleotides, Device for Purifying Nucleotides, Hy-Drophobic Reagent, and Hydrophobic Substrate” (Japan Science and Technology Agency, priority 2021, published 2024)
Entries after “also recorded” stand apart in the source; their conditions may differ.

Key:
Assay type in all cases: cell-based
[1] = system: HeLa cells; experiment: Translation activity of NanoLuc luciferase mRNA (capped with cap analog, reverse-phase HPLC purified) lipofected into HeLa cells (FIG. 30, 31)
Procedure: In (A) of the figure, a cap analog compound was added, a NanoLuc luciferase mRNA (650-base-long) was transcriptionally synthesized using T7 RNA polymerase, and the transcription reaction was analyzed by denaturing polyacrylamide gel (5%, containing 7.5 M urea as a denaturant) electrophoresis. The composition of the transcription reaction liquid and the reaction conditions are shown below.
15 ng/μL dsDNA transcription template (PCR product of 676-bp containing T7 promoter sequence 5′TAATACGACTCACTATAG3′-(SEQ ID NO: 1) and containing a NanoLuc luciferase gene coding region derived from a pNL1.1 TK vector (Promega)), 2 mM ATP, 2 mM UTP, 2 mM CTP, 2 mM GTP or [0.5 mM GTP+2 mM Cap Analog], 40 mM Tris-HCl (pH 8.0), 8 mM MgCl2, 2 mM spermidine, 5 mM DTT, 10 units/μL T7 RNA polymerase (Takara Bio Inc.).
FIG. 30 is a diagram showing the evaluation of the translation activity of a NanoLuc luciferase mRNA after reverse-phase HPLC isolation and purification. The activity was indicated with the expression level of the mRNA prepared without addition of the cap analog being 1.
FIG. 31 is a diagram showing the evaluation of the translation activity of a NanoLuc luciferase mRNA after reverse-phase HPLC isolation and purification. The activity was indicated with the expression level of the mRNA prepared without addition of the cap analog being 1. […]

[2] = system: JAWS II cells; experiment: Translation activity of Luc2 mRNA transcriptionally synthesized using a cap analog, JAWS II cells (FIG. 38); settings: lipofection, after 24 hours, versus Tri_1 (CleanCap Reagent AG structure)
Procedure: (§1) An RNA was transcriptionally synthesized with T7 RNA polymerase using a double-stranded DNA as a template. The double-stranded DNA of the template was obtained by amplifying pSP73-a-luc2 (described at the end of the experimental section) encoding the Luc2 gene by a PCR reaction using KOD-Plus-Neo (TOYOBO), Fw primer (cgcgttggccgattcatt: SEQ ID NO: 3), Rev primer ([…]: SEQ ID NO: 4) (1.0 ng/μL DNA vector, 1×KOD-Plus-Neo buffer, 0.2 mM dNTPs, 0.3 μM primers, 1.5 mM MgSO4, 0.02 units/μL polymerase). […]
(§2) Deprotection by photoirradiation: The RNA solution was added to a transparent 96-multiwell plate, and irradiated with 365 nm light at a quantity of light of 4 mW/cm^2 for 15 minutes using a MAX-305 light source device (Asahi Spectra Co., Ltd.). […]
FIG. 38 is a diagram showing the result of evaluation of translation activity in JAWS II cells of an RNA transcriptionally synthesized using a cap analog. […] After 24 hours, the cells were lysed and the luminescence of firefly luciferase was measured. […]
Evaluation of intracellular translation activity (JAWS II cells): JAWS II cells (ATCC) were cultivated (37° C., 5% CO2) in Minimum Essential Medium α(MEM α; Thermo Fisher SCIENTIFIC) with addition of 10% fetal bovine serum (FBS; Invitrogen) and GM-CSF (5 ng/mL). […] Luminescence was measured using ONE-Glo (registered trademark) luciferase assay (registered trademark) (Promega).

[3] = system: HeLa cells; experiment: Translation activity of Luc2 mRNA transcriptionally synthesized using a cap analog, HeLa cells (FIG. 37); settings: lipofection, after 24 hours, versus Tri_1 (CleanCap Reagent AG structure)
Procedure: as §1, §2
FIG. 37 is a diagram showing the result of evaluation of translation activity in a HeLa cell of RNAs transcriptionally synthesized using a cap analog. […] After 24 hours, the cells were lysed and the luminescence of firefly luciferase was measured. […]
HeLa cells (RIKEN Cell Bank) were cultivated (37° C., 5% CO2) in Dulbecco's modified Eagle's medium (DMEM; WAKO) with addition of 10% fetal bovine serum (FBS; Invitrogen). […] Luminescence was measured using ONE-Glo (registered trademark) luciferase assay (registered trademark) (Promega).

[4] = system: NF-κB reporter (Luc)-HEK 293 cells; experiment: Evaluation of intracellular immune response, NF-κB reporter luciferase assay (FIG. 43, 45); settings: FIG. 45; HEK 293 NF-kB cells, 50 ng and 100 ng mRNA, 24 hours
Procedure: NF-κB reporter (Luc)-HEK 293 cells (BPS Bioscience Inc.) were cultivated (37° C., 5% CO2) in a Dulbecco's modified Eagle's medium (DMEM; WAKO) with addition of 10% fetal bovine serum (FBS; Invitrogen), 100 μg/ml of Hygromycin B. The day before transfection, NF-κB reporter (Luc)-HEK 293 cells were seeded in a 48-well plate (7.5×10^4 cells/well). The next day, the medium was removed and replaced with 225 μL/well Opti-MEM (registered trademark) (Thermo Fisher SCIENTIFIC). 0.375 μL Lipofectamine (registered trademark) Messenger MAX (registered trademark) and 12.5 ng mRNA (DiPure) were diluted in 25 μL Opti-MEM (registered trademark) and introduced into cells. After incubation at 37° C. for 5 hours, 50 μL/well 1× Cell Lysis Buffer (Promega) was added to lyse the cells. Luminescence was measured using ONE-Glo (registered trademark) luciferase assay (registered trademark) (Promega). The protein amount was quantified using Pierce (registered trademark) BCA Protein Assay Kit (Thermo Fisher SCIENTIFIC), and the luminescence value was corrected by the number of cells.
NF-κB reporter (Luc)-HEK 293 cells (BPS Bioscience Inc.) were cultivated (37° C., 5% CO2) in a Dulbecco's modified Eagle's medium (DMEM; WAKO) with addition of 10% fetal bovine serum (FBS; Invitrogen), 100 μg/ml of Hygromycin B. The day before transfection, NF-κB reporter (Luc)-HEK 293 cells were seeded in a 48-well plate (1.0×10^5 cells/well). The next day, the medium was removed and replaced with 240 μL/well Opti-MEM (registered trademark) (Thermo Fisher SCIENTIFIC). 0.15 μL Lipofectamine (registered trademark) Messenger MAX (registered trademark) and 100 ng mRNA were diluted in 10 μL Opti-MEM (registered trademark) and introduced into cells. After incubation at 37° C. for 24 hours, 50 μL/well 1× Cell Lysis Buffer (Promega) was added to lyse the cells. Luminescence was measured using ONE-Glo (registered trademark) luciferase assay (registered trademark) (Promega). The protein amount was quantified using Pierce (registered trademark) BCA Protein Assay Kit (Thermo Fisher SCIENTIFIC), and the luminescence value was corrected by the number of cells.

## C[n+]1cn([C@@H]2O[C@H](COP(=O)(O)OP(=O)([O-])OP(=O)(O)OC[C@H]3O[C@@H](n4cnc5c(=O)[nH]c(N)nc54)C(O)[C@H]3O)[C@H](O)C2OCOC(c2ccccc2[N+](=O)[O-])C(C)(C)C)c2nc(N)nc(O)c21 (mixture of isomers) [Cap Analog_2, P1-{N^7-Methyl-2′-O-[2,2-dimethyl-(R/S)-1-(2-nitrophenyl)propyloxy]methylguanosin-5′-yl} P3-guanosin-5′-yl triphosphate]
[1]; FIG. 31, mRNA 5 ng/well, cultivated 23 hours
  translation activity compared with mRNA prepared using ARCA cap analog: higher translation activity compared to the RNA capped with ARCA

## COC1[C@@H](OP(=O)([O-])OC[C@H]2O[C@@H](n3cnc4c(=O)[nH]c(N)nc43)C(O)[C@H]2O)[C@@H](COP(=O)([O-])OP(=O)([O-])OP(=O)([O-])OC[C@H]2O[C@@H](n3c[n+](C)c4c([O-])nc(N)nc43)C(OCOC(c3ccccc3[N+](=O)[O-])C(C)(C)C)[C@H]2O)O[C@H]1n1cnc2c(N)ncnc21.[Na+].[Na+].[Na+].[Na+] (some centres unmarked) [TriPure_1, Nb-^m7GpppA(2′OCH3)pG]
[2]
  translation activity relative to Tri_1 (firefly luciferase luminescence): about 24 times
[3]
  translation activity relative to Tri_1 (firefly luciferase luminescence): about 2 times
[4]
  intracellular immune response (NF-κB reporter luminescence): lower immune response than conventional mRNAs synthesized using ARCA

## P1-(N^2-tBu-nitrobenzyloxycarbonyl-N^7-methylguanosin-5′-yl) P3-guanosin-5′-yl triphosphate [Cap Analog_1]
[1]; FIG. 30, mRNA 20 ng/well, cultivated 7 hours, before and after photoirradiation/deprotection
  translation activity (amount of expressed NanoLuc luciferase; expression level of mRNA prepared without cap analog being 1): does not show high translation activity unless it is irradiated with light and deprotected; also recorded: can completely inhibit translation activity in the protected state
